Test results from PMC9822133, “Design, Synthesis and Antiproliferative Evaluation of Bis-Indole Derivatives with a Phenyl Linker: Focus on Autophagy” (Molecules, 2022).

Columns and labels:
[1] = tested on: BLM; assay: MTT screening assay, BLM; type: cell-based; conditions: Homo sapiens, 72 h incubation
[2] = tested on: Cos-7; assay: MTT screening assay, Cos-7 non-cancer cells; type: cell-based, monkey; conditions: Primates, 72 h incubation
Source text: (§1) The ability of newly synthesized indole phytoalexins to suppress cell proliferation was screened in vitro on eight cancer cell lines including human colorectal carcinoma (Caco-2 and HCT116), human cervical cancer (HeLa), human breast adenocarcinoma (MCF-7, MDA-MB-231), human alveolar adenocarcinoma (A549) and human leukemic T cell lymphoma (Jurkat), and two non-cancer cell lines (MCF-10A, Cos-7).
(§2) The cell lines used for this study were Caco-2 (human colorectal adenocarcinoma cell line, American Type Culture Collection, Manassas, VA, USA (ATCC)), HCT116 (human colorectal carcinoma cells European Collection of Authenticated Cell Cultures, Salisbury, UK (ECACC)), HeLa (human cervical tumor cells, ECACC), MCF-7 (human breast tumor cells, ECACC), MDA-MB-231 (human breast tumor cells, ATCC), A549 (human lung carcinoma cells, ATCC), BLM (human melanoma lung metastases, a gift from prof. K. Smetana, Institute of Anatomy, Charles University in Prague), Jurkat (human leukemia cell line, ECACC), Cos-7 (immortalized monkey kidney fibroblasts, ATCC) and MCF-10A (human mammary epithelial cells, ATCC). Caco-2, MCF-7, BLM, Cos-7 and A549 cells were cultured in Dulbecco’s Modified Eagle’s Medium (DMEM) with high glucose and sodium pyruvate (GE Healthcare, Piscataway, NJ, USA); HCT116 lines, HeLa, MDA-MB-231 and Jurkat were cultured in RPMI-1640 medium; and MCF10A cells were cultured in high glucose DMEM/F12 (Dulbecco’s Modified Eagle’s Medium F12). The media were enriched with 10% fetal bovine serum (FBS) and a 1% solution of a mixture of antibiotics and antimycotics 1× HyClone™ (GE Healthcare, Chicago, IL, USA). DMEM/F12 medium was supplemented with epidermal growth factor (EGF) (20 ng/mL final), hydrocortisone (0.5 μg/mL final) and insulin (10 μg/mL final) (Sigma-Aldrich Chemie, Steinheim, Germany). The cells were placed in an incubator at 37 °C with humidified air containing 5% CO2.
(§3) The MTT assay is a colorimetric method used to quantify the metabolic activity of cells. MTT (3-(4,5-di-methylthiazol-2-yl)2,5-diphenyltetrazolium bromide) (Sigma-Aldrich Chemie, Steinheim, Germany) is reduced by oxidoreductases in the cytosol of cells to light-absorbing formazan, the presence of which can be measured spectrophotometrically and determines the half-maximal inhibitory concentration (IC50). A549 cells were seeded in 95-well culture plates at a density of 5 × 10^3 per well. […]
(§4) We also incubated the cells with chloroquine at concentrations of 5–20 µM, which was added 1 h before the addition of the test substance, and cisplatin at concentrations of 3–10 µM. […] After 24 h, the absorbance was measured at a wavelength of 540 nm using an automated Cytation™ 3 Cell Imaging Multi-Mode Reader (Biotek, Winooski, VT, USA). […]

[3] = tested on: HCT116; assay: MTT screening assay, HCT116; type: cell-based; conditions: Homo sapiens, HCT-116, 72 h incubation
Source text: as §1, §2, §3, §4

[4] = tested on: Jurkat; assay: MTT screening assay, Jurkat; type: cell-based; conditions: Homo sapiens, 72 h incubation
Source text: as §1, §2, §3, §4

[5] = tested on: Caco-2; assay: MTT screening assay, Caco-2; type: cell-based; conditions: Homo sapiens, 72 h incubation
Source text: as §1, §2, §3, §4

[6] = tested on: MCF-7; assay: MTT screening assay, MCF-7; type: cell-based; conditions: Homo sapiens, MCF7, 72 h incubation
Source text: as §1, §2, §3, §4

[7] = tested on: MDA-MB-231; assay: MTT screening assay, MDA-MB-231; type: cell-based; conditions: Homo sapiens, 72 h incubation
Source text: as §1, §2, §3, §4

[8] = tested on: A549; assay: MTT screening assay, A549; type: cell-based; conditions: Homo sapiens, 72 h incubation
Source text: as §1, §2, §3, §4

[9] = tested on: HeLa; assay: MTT screening assay, HeLa; type: cell-based; conditions: Homo sapiens, 72 h incubation
Source text: as §1, §2, §3, §4

[10] = tested on: MCF10A; assay: MTT screening assay, MCF10A non-cancer cells; type: cell-based, human; conditions: Homo sapiens, MCF-10A; 72 h incubation, MTT, non-cancer cells
Source text: as §1, §2
The MTT assay is a colorimetric method used to quantify the metabolic activity of cells. MTT (3-(4,5-di-methylthiazol-2-yl)2,5-diphenyltetrazolium bromide) (Sigma-Aldrich Chemie, Steinheim, Germany) is reduced by oxidoreductases in the cytosol of cells to light-absorbing formazan, the presence of which can be measured spectrophotometrically and determines the half-maximal inhibitory concentration (IC50). A549 cells were seeded in […] culture plates at a density of 5 × 10^3 per well. After 24 h of cultivation, the tested substance 49 was added in concentrations of 10, 50 and 100 µM.
We also incubated the cells with chloroquine at concentrations of 5–20 µM, which was added 1 h before the addition of the test substance, and cisplatin at concentrations of 3–10 µM. Cisplatin was added 24 h after the addition of 49. After 72 h of incubation, 10 µL of MTT (5 mg/mL) was added to each well. After 4 h, formazan crystals formed in the wells, which were dissolved in 100 uL of 10% SDS (sodium dodecyl sulfate). After 24 h, the absorbance was measured at a wavelength of 540 nm using an automated Cytation™ 3 Cell Imaging Multi-Mode Reader (Biotek, Winooski, VT, USA). These experiments were performed in three independent replicates.

[11] = tested on: A549 human lung cancer cells; assay: MTT assay with cis-platin alone or combined with compound 49; type: cell-based; conditions: A549, CisPt alone 10.0 μM, 72 h
Source text: Furthermore, the depletion of GSH has been documented to potentiate the effect of anticancer drugs. Glutathione plays an important role in cisPt detoxification, so depletion of GSH is believed to potentiate the cisPt-induced DNA damage and increase the chemosensitivity of cancer cells to this anticancer drug. Due to the GSH-depleting effect of compound 49, we performed a set of experiments with cis-platin (CisPt) alone or in combination with compound 49 (Figure 9). […] Simultaneous treatments with CisPt (10 μM) and 20 μM of compound 49 caused a 59% reduction in cell growth.
as §3, with “(IC50).” for “(IC50). A549 cells were seeded in 95-well culture plates at a density of 5 × 10^3 per well.”
as §4

Structure (SMILES) | IC50 [1] [µM] | IC50 [2] [µM] | IC50 [3] [µM] | IC50 [4] [µM] | IC50 [5] [µM] | melting point [°C] | IC50 [6] [µM] | IC50 [7] [µM] | IC50 [8] [µM] | IC50 [9] [µM] | IC50 [10] [µM] | reduction of cell growth [11] [%]
CC(C)(C)OC(=O)n1cc(CNC(=S)Nc2ccc(NC(=S)NCc3cn(C(=O)OC(C)(C)C)c4ccccc34)cc2)c2ccccc21 [Compound 48, N,N′-(1,4-phenylene)bis{N′-[1-(tert-butoxycarbonyl)indol-3-yl]methyl (thiourea)}] | 77.1 ± 4.3 | 78.3 ± 2.6 | 51.9 ± 4.7 | 38.8 ± 2.9 | 51.7 ± 4.1 | 204 to 206 | 77 ± 2.1 | 46 ± 2.5 | 73.1 ± 7.3 | 65.3 ± 5.3 | 67.3 ± 1.9 | –
N.N.[Cl][Pt][Cl] [CisPt, cis-platin, reference compound] | – | – | – | – | – | – | – | – | – | – | – | 39
CO[C@@H]1N(C(=O)OC(C)(C)C)c2ccccc2[C@]12CN=C(Nc1ccc(NC3=NC[C@]4(S3)c3ccccc3N(C(=O)OC(C)(C)C)[C@@H]4OC)cc1)S2 [Compound 52a, N,N′-bis[1-(tert-Butoxycarbonyl)-2-methoxy-spiro{indoline-3,5′-[4′,5′]dihydrothiazol-2′-yl}]benzene-1,4-diamine] | 7.4 ± 2.5 | 7.15 ± 0.3 | 5.8 ± 0.3 | 6.1 ± 0.7 | 6.1 ± 2.1 | – | 62.9 ± 3.9 | 8.3 ± 3.2 | 5.95 ± 0.2 | 6.4 ± 0.7 | 10.1 ± 6.2 | –
CC(C)(C)OC(=O)n1cc(CN2C(=O)CSC2=Nc2ccc(N=C3SCC(=O)N3Cc3cn(C(=O)OC(C)(C)C)c4ccccc34)cc2)c2ccccc21 [Compound 51a, 2,2′-[1,4-phenylenebis(azanylylidene)]bis{3-[(1-(tert-butoxycarbonyl)-indol-3-yl)methyl]-1,3-thiazolidin-4-one}] | > 100 | > 100 | 97.7 ± 3.2 | > 100 | > 100 | 196 to 198 | > 100 | > 100 | 93.8 ± 1 | > 100 | > 100 | –
